Among the test systems are RPMI-8226 leukemia; MALME-3M melanoma; NCI-H23 lung; MDA-MB-435; A498 renal; A549 NSCLC; HCT-15 colon; TK-10 renal; NCI-H522 lung; SNB-19 CNS.
Experiment in all cases: NCI tumour cell line growth inhibition, 48 h

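Grown in 96-well plates, cells were treated for 48 hours with each compound at five concentrations. Insufficient inhibition: endpoint recorded as highest concentration tested. Abbreviation: GI50, concentration required for 50% inhibition of growth. TGI denotes the concentration required for complete inhibition of growth.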 Bounds are passed on as bounds.

Regarding `Clc1cc(Br)ccc1-c1ccc(CNCC2CCNCC2)o1`, the GI50 with RPMI-8226 leukemia is 1860 nM; in the experiment on MALME-3M melanoma it was 2.33 µM; with NCI-H23 lung, 3.43 µM; in the experiment on MDA-MB-435 it was 1840 nM; with A498 renal it was 1870 nM; in the experiment on A549 NSCLC, 1900 nM. The GI50 in the experiment with HCT-15 colon is 1860 nM; in the experiment on TK-10 renal it was 1750 nM; in the experiment with NCI-H522 lung, 1820 nM; in the experiment on SNB-19 CNS, 2.3 µM. The TGI with RPMI-8226 leukemia worked out at 4.46 µM; in the experiment with MALME-3M melanoma, 4.11 µM; with NCI-H23 lung it was 13.6 µM; in the experiment with MDA-MB-435, 3.46 µM; with A498 renal, 4.24 µM; in the experiment on A549 NSCLC, 3.77 µM. The TGI in the experiment with HCT-15 colon worked out at 4.29 µM; in the experiment with TK-10 renal, 3.37 µM; in the experiment with NCI-H522 lung it was 3.72 µM; in the experiment with SNB-19 CNS, 7.2 µM.
As for `CCn1nc(C2CCN(C(=O)CCO)CC2)nc1-c1cnc(N)c(-c2nnc(C(C)(C)C)o2)n1`, the GI50 is 28000 nM in the experiment on RPMI-8226 leukemia; 3.77 µM with MALME-3M melanoma; 26.1 µM in the experiment on NCI-H23 lung; 13000 nM in the experiment with MDA-MB-435; 617 nM in the experiment on A498 renal; 2260 nM in the experiment on A549 NSCLC. Moreover, the GI50 with HCT-15 colon is 6170 nM; in the experiment with TK-10 renal it was 1950 nM; with NCI-H522 lung it was 15300 nM; in the experiment with SNB-19 CNS, over 100 µM. Moreover, the TGI with RPMI-8226 leukemia is over 76.7 µM; with MALME-3M melanoma, over 100 µM; in the experiment with NCI-H23 lung it was over 100 µM; with MDA-MB-435 it was over 100 µM; in the experiment on A498 renal it was 5.12 µM; with A549 NSCLC, over 100 µM. Besides, the TGI in the experiment on HCT-15 colon was over 100 µM; in the experiment with TK-10 renal, over 100 µM; in the experiment with NCI-H522 lung, 63.5 µM; in the experiment on SNB-19 CNS, over 100 µM.
Turning to `COc1cc(CSc2nc3ccc(Cl)cc3c(=O)n2Cc2ccccc2)cc(OC)c1OC`, the GI50 in the experiment with RPMI-8226 leukemia was 4270 nM; with MALME-3M melanoma, 5.81 µM; in the experiment on NCI-H23 lung, 8.48 µM; with MDA-MB-435, 406 nM; in the experiment on A498 renal it was 1890 nM; in the experiment on A549 NSCLC, 4030 nM. Moreover, the GI50 was 1460 nM in the experiment with HCT-15 colon, 10300 nM with TK-10 renal, 652 nM in the experiment on NCI-H522 lung and 5.46 µM in the experiment with SNB-19 CNS. Also, the TGI in the experiment with RPMI-8226 leukemia was over 100 µM; with MALME-3M melanoma, 39.1 µM; with NCI-H23 lung it was over 100 µM; with MDA-MB-435, 11.6 µM; in the experiment with A498 renal, 8.2 µM; in the experiment with A549 NSCLC it was over 100 µM. In addition, the TGI in the experiment on HCT-15 colon was over 100 µM; in the experiment on TK-10 renal, 51.8 µM; in the experiment on NCI-H522 lung, 4.54 µM; in the experiment on SNB-19 CNS it was over 100 µM.
For `c1cc(OCCN2CCCC2)ccc1CNc1ccc2nc(CCC3CCCCC3)[nH]c2c1`, the GI50 in the experiment with RPMI-8226 leukemia is 1350 nM; with MALME-3M melanoma, 1.57 µM; with NCI-H23 lung it was 2.45 µM; with MDA-MB-435, 1620 nM; in the experiment on A498 renal, 1150 nM; with A549 NSCLC, 2470 nM. The GI50 is 1550 nM in the experiment with HCT-15 colon, 2980 nM with TK-10 renal, 2100 nM in the experiment on NCI-H522 lung and 2.91 µM with SNB-19 CNS. For the same compound, the TGI with RPMI-8226 leukemia was 3.64 µM; with MALME-3M melanoma, 3.07 µM; in the experiment on NCI-H23 lung, 8.17 µM; in the experiment with MDA-MB-435 it was 3.08 µM; in the experiment with A498 renal, 2.77 µM; in the experiment with A549 NSCLC it was 7.52 µM. Moreover, the TGI with HCT-15 colon was found to be 3.7 µM; with TK-10 renal it was 7.97 µM; in the experiment on NCI-H522 lung it was 4.47 µM; in the experiment on SNB-19 CNS it was 10 µM.
As to `COc1cc2c(cc1OC)[C@@H]1C(=O)c3ccc4c(c3O[C@@H]1CO2)C[C@H](C(C)C)O4`, the GI50 with RPMI-8226 leukemia was 15.2 nM; in the experiment with MALME-3M melanoma it was 5.56 µM; with NCI-H23 lung, 0.0416 µM; in the experiment on MDA-MB-435 it was 4060 nM; with A498 renal, 661 nM; with A549 NSCLC it was 759 nM. Also, the GI50 with HCT-15 colon is 9260 nM; with TK-10 renal, 5370 nM; in the experiment with NCI-H522 lung it was 961 nM; in the experiment with SNB-19 CNS, 9.74 µM. In addition, the TGI in the experiment on RPMI-8226 leukemia is 9.08 µM; with MALME-3M melanoma, 53.2 µM; in the experiment with NCI-H23 lung it was over 38 µM; in the experiment with MDA-MB-435, over 36.7 µM; in the experiment on A498 renal, over 31 µM; in the experiment with A549 NSCLC, over 57.8 µM. The TGI in the experiment on HCT-15 colon is over 71 µM; in the experiment with TK-10 renal it was over 49 µM; with SNB-19 CNS, over 78.1 µM.
For the compound `COC(=O)c1c2c(c(C)[n+]([O-])c1C)C(=O)C(NCc1ccccc1)=CC2=O`, the GI50 is 2610 nM with RPMI-8226 leukemia; 0.617 µM with MALME-3M melanoma; 2.03 µM in the experiment with NCI-H23 lung; 1810 nM in the experiment on MDA-MB-435; 4720 nM with A498 renal; 2470 nM in the experiment on A549 NSCLC. In addition, the GI50 with HCT-15 colon is 1700 nM; with TK-10 renal it was 4480 nM; with NCI-H522 lung, 2450 nM; with SNB-19 CNS, 3.25 µM. In addition, the TGI in the experiment on RPMI-8226 leukemia came out at 10.1 µM; with MALME-3M melanoma, 1.88 µM; in the experiment on NCI-H23 lung it was 6.09 µM; in the experiment on MDA-MB-435 it was 3.3 µM; in the experiment on A498 renal it was 16.1 µM; in the experiment on A549 NSCLC, 7.94 µM. Besides, the TGI in the experiment on HCT-15 colon worked out at 4.44 µM; in the experiment with TK-10 renal it was 18.7 µM; in the experiment with NCI-H522 lung it was 7.62 µM; in the experiment on SNB-19 CNS, 11.2 µM.
For `COc1ccc(Nc2ncc(I)c(NCCCNC(=O)C3CCC3)n2)cc1`, the GI50 in the experiment on RPMI-8226 leukemia is 10300 nM; in the experiment on MALME-3M melanoma, 7.39 µM; in the experiment with NCI-H23 lung, 5.26 µM; in the experiment with MDA-MB-435 it was 17100 nM; with A498 renal, 7250 nM; in the experiment on A549 NSCLC it was 4600 nM. Besides, the GI50 is 5880 nM in the experiment on HCT-15 colon, 897 nM in the experiment on TK-10 renal, 20900 nM in the experiment with NCI-H522 lung and 5.26 µM in the experiment on SNB-19 CNS. For the same compound, the TGI with RPMI-8226 leukemia was 53.8 µM; in the experiment on MALME-3M melanoma, over 100 µM; in the experiment with NCI-H23 lung, 46.9 µM; in the experiment on MDA-MB-435, over 100 µM; with A498 renal, 21.7 µM; in the experiment on A549 NSCLC, 24.6 µM. Moreover, the TGI in the experiment with HCT-15 colon is 52.1 µM; in the experiment with TK-10 renal it was 9.78 µM; with NCI-H522 lung, over 100 µM; in the experiment on SNB-19 CNS, over 100 µM.
